This passage reports IC50 results from patent US20240351997A1, “NOVEL PARP7 INHIBITOR AND USE THEREOF” (SHANGHAI QILU PHARMACEUTICAL RESEARCH AND DEVELOPMENT …, priority 2021, published 2024).

PARP7, sequence (Q7Z3E1 whole entry): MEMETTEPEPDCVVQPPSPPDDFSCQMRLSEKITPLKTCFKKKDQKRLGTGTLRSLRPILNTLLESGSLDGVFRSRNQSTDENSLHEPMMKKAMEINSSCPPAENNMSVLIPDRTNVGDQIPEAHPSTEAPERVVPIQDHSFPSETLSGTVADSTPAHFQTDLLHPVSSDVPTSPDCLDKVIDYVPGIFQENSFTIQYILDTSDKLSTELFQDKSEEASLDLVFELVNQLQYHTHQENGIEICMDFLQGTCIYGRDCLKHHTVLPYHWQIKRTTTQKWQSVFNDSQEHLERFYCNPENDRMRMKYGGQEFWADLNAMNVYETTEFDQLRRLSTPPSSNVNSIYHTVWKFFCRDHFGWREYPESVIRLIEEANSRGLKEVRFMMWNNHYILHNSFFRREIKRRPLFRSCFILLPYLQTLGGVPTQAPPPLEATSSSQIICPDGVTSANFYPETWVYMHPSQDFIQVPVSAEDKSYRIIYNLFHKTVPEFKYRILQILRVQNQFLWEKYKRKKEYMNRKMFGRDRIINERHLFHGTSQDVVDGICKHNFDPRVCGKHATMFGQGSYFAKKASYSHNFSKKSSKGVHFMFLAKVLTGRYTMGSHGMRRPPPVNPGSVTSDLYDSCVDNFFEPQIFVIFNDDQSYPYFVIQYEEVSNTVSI

This test concerns the target PARP7 (Homo sapiens (Human), UniProt Q7Z3E1). In words: In vitro enzymology experiment of PARP7 (enzymatic inhibition). The format is biochemical. The method, then: II. In Vitro Enzymology Experiment of PARP2, 3, 5A, 5B, 7, 12, and 15
1. Preparation of 384-well histone-coated plate: 25 μL of histone solution was added to each well, and the plate was incubated overnight at 4° C.
2. Preparation of PBST buffer, blocking buffer, and assay buffer
3. The 384-well histone-coated plate was washed three times with PBST buffer. The plate was blocked by 50 μL of blocking buffer for 1 hour at room temperature. The plate was then washed three times with PBST buffer.
2000× compound was prepared in a 96-well source plate. 50 nL of the compound was transferred from the source plate to a 96-well intermediate plate, and 39.95 μL of assay buffer was added to each well. The plate was shaken well and centrifuged at 1000 rpm for 1 minute.
5 μL of compound DMSO solution was transferred to each well.
An enzyme mixture was incubated at 25° C. for 10 minutes.
10 μL of the enzyme mixture was added, and incubated with the compound at room temperature for 10 minutes.
10 μL of assay buffer was added to the negative control well of the assay plate.
The plate was then washed three times with PBST buffer.
25 μL of Stre-HRP was added.
The plate was incubated at room temperature for 1 hour and washed three times with PBS buffer.
25 μL of QuantaRed Enhancer mix was added. The plate was incubated for 10 minutes.
2.5 μL of QuantaRed Stop Solution was added to terminate the peroxidase reaction, and the plate was shaken for 10 to 30 seconds.
7. Paradigm was used to read the plate immediately to detect the readings at Ex550/Em620.
Using equation (1) to fit the data in Excel to obtain inhibition values
Using equation (2) to fit the data in XL-Fit to obtain IC50 values
Y is the percentage of inhibition, and X is the compound concentration.
Regarding `O=C(O[C@@H]1CCC[C@H]1c1c[nH]c(=O)c(C(F)(F)F)c1)N1CCN(c2ncc(C(F)(F)F)cn2)CC1` (single isomer, unassigned) [Example 70], the IC50 (usually the concentration needed to halve the response being measured) turned out to be 0.91 nM. This counts as sub-nanomolar.

With `COC[C@@H]1CN(c2ncc(C(F)(F)F)cn2)CCN1C(=O)OCCc1c[nH]c(=O)c(C(F)(F)F)c1` (stereo in doubt) [Example 129, 2-(6-Oxo-5-(trifluoromethyl)-1,6-dihydropyridin-3-yl)ethyl 2-(methoxymethyl)-4-(5-(trifluoromethyl)pyrimidin-2-yl)piperazine-1-carboxylate], the IC50 turned out to be 0.39 nM.

In turn, `O=C(Cc1cc(C(F)(F)F)c(=O)[nH]n1)NCC(=O)N1CCN(c2ncc(C(F)(F)F)cn2)CC1` [Example 5, N-(2-Oxo-2-(4-(5-(trifluoromethyl)pyrimidin-2-yl)piperazin-1-yl)ethyl)-2-(6-oxo-5-(trifluoromethyl)-1,6-dihydropyridazin-3-yl)acetamide] displayed an IC50 of 5.83 nM.

The molecule `O=C(COC[C@@H]1CCCN1c1c[nH]c(=O)c(C(F)(F)F)c1)N1CCN(c2ncc(C(F)(F)F)cn2)CC1` [Example 7, (S)-5-(2-((2-Oxo-2-(4-(5-(trifluoromethyl)pyrimidin-2-yl)piperazin-1-yl)ethoxy)methyl)pyrrolidin-1-yl)-3-(trifluoromethyl)pyridin-2(1H)-one] yielded an IC50 of 2.79 nM.

`O=C(CCOC[C@@H]1CCCN1c1c[nH]c(=O)c(C(F)(F)F)c1)N1CCN(c2ncc(C(F)(F)F)cn2)CC1` [Example 9, (S)-5-(2-((3-Oxo-3-(4-(5-(trifluoromethyl)pyrimidin-2-yl)piperazin-1-yl)propoxy)methyl)pyrrolidin-1-yl)-3-(trifluoromethyl)pyridin-2(1H)-one] came in with an IC50 of 7.6 nM.

`O=C(CCOC[C@H]1CCCN1c1c[nH]c(=O)c(C(F)(F)F)c1)N1CCN(c2ncc(C(F)(F)F)cn2)CC1` [Example 10, (R)-5-(2-((3-Oxo-3-(4-(5-(trifluoromethyl)pyrimidin-2-yl)piperazin-1-yl)propoxy)methyl)pyrrolidin-1-yl)-3-(trifluoromethyl)pyridin-2(1H)-one] registered an IC50 of 6.7 nM.

Molecule `O=C(CCOCCN1CCCc2c1cn[nH]c2=O)N1CCN(c2ncc(C(F)(F)F)cn2)CC1` [Example 13, 1-(2-(3-Oxo-3-(4-(5-(trifluoromethyl)pyrimidin-2-yl)piperazin-1-yl)propoxy)ethyl)-2,3,4,6-tetrahydropyrido[2,3-d]pyridazin-5(1H)-one] returned a concentration for half-maximal inhibition (IC50) of 5.98 nM. This IC50 and that of the molecule before are within 1.5-fold of each other.

`O=C(CCOc1c[nH]c(=O)c(C(F)(F)F)c1)N1CCN(c2ncc(C(F)(F)F)cn2)CC1` [Example 17, 5-(3-Oxo-3-(4-(5-(trifluoromethyl)pyrimidin-2-yl)piperazin-1-yl)propoxy)-3-(trifluoromethyl)pyridin-2(1H)-one] had an IC50 of 2.79 nM.

For the molecule `O=C(CCOCCn1c(=O)ccc2c(=O)[nH]ncc21)N1CCN(c2ncc(C(F)(F)F)cn2)CC1` [Example 22, 1-(2-(3-Oxo-3-(4-(5-(trifluoromethyl)pyrimidin-2-yl)piperazin-1-yl)propoxy)ethyl)pyrido[2,3-d]pyridazine-2,5(1H,6H)-dione], half-maximal inhibition (IC50) required 3.6 nM.

As to `CC(COC(=O)N1CCN(c2ncc(C(F)(F)F)cn2)CC1)c1c[nH]c(=O)c(C(F)(F)F)c1` (stereo not shown) [Example 25, 2-(6-Oxo-5-(trifluoromethyl)-1,6-dihydropyridin-3-yl)propyl 4-(5-(trifluoromethyl)pyrimidin-2-yl)piperazine-1-carboxylate], inhibition was half-maximal at 0.8 nM (IC50).

`C[C@H](COC(=O)N1CCN(c2ncc(C(F)(F)F)cn2)CC1)c1c[nH]c(=O)c(C(F)(F)F)c1` [Example 26] came in with a 50% inhibitory concentration (IC50) of 0.6 nM.

`C[C@@H](COC(=O)N1CCN(c2ncc(C(F)(F)F)cn2)CC1)c1c[nH]c(=O)c(C(F)(F)F)c1` [Example 27] yielded an IC50 of 1.1 nM.

As to `O=C(CCc1c[nH]c(=O)c(C(F)(F)F)c1)N1CCN(c2ncc(C(F)(F)F)cn2)CC1` [Example 28, 5-(3-Oxo-3-(4-(5-(trifluoromethyl)pyrimidin-2-yl)piperazin-1-yl)propyl)-3-(trifluoromethyl)pyridin-2(1H)-one], the half-maximal inhibitory concentration (IC50) was determined as 0.9 nM.

Take `O=C(OC[C@@H]1CCCN1c1c[nH]c(=O)c(C(F)(F)F)c1)N1CCN(c2ncc(C(F)(F)F)cn2)CC1` [Example 29, (S)-(1-(6-Oxo-5-(trifluoromethyl)-1,6-dihydropyridin-3-yl)pyrrolidin-2-yl)methyl 4-(5-(trifluoromethyl)pyrimidin-2-yl)piperazine-1-carboxylate]: the IC50 came to 5.6 nM. Compared with the last molecule, the IC50 is about 6.2-fold higher.

In the case of `O=C(c1cccc(Cc2c[nH]c(=O)c(C(F)(F)F)c2)c1)N1CCN(c2ncc(C(F)(F)F)cn2)CC1` [Example 30, 3-(Trifluoromethyl)-5-(3-(4-(5-(trifluoromethyl)pyrimidin-2-yl)piperazine-1-carbonyl)benzyl)pyridin-2(1H)-one], the concentration for half-maximal inhibition (IC50) turned out to be 0.9 nM.

Regarding `O=C(CCNc1c[nH]c(=O)c(C(F)(F)F)c1)N1CCN(c2ncc(C(F)(F)F)cn2)CC1` [Example 31, 5-((3-Oxo-3-(4-(5-(trifluoromethyl)pyrimidin-2-yl)piperazin-1-yl)propyl)amino)-3-(trifluoromethyl)pyridin-2(1H)-one], the IC50 stood at 1.19 nM. This IC50 and that of the molecule before are within 1.5-fold of each other.

As for `O=C(NCCc1c[nH]c(=O)c(C(F)(F)F)c1)N1CCN(c2ncc(C(F)(F)F)cn2)CC1` [Example 32, N-(2-(6-Oxo-5-(trifluoromethyl)-1,6-dihydropyridin-3-yl)ethyl)-4-(5-(trifluoromethyl)pyrimidin-2-yl)piperazine-1-carboxamide], 0.44 nM corresponded to half-maximal inhibition (IC50).

In the case of `CC(Cc1c[nH]c(=O)c(C(F)(F)F)c1)OC(=O)N1CCN(c2ncc(C(F)(F)F)cn2)CC1` (stereo not shown) [Example 33, 1-(6-Oxo-5-(trifluoromethyl)-1,6-dihydropyridin-3-yl)propan-2-yl 4-(5-(trifluoromethyl)pyrimidin-2-yl)piperazine-1-carboxylate], the IC50 came out at 0.9 nM.

The molecule `O=C(OC[C@H]1CCCN1c1c[nH]c(=O)c(C(F)(F)F)c1)N1CCN(c2ncc(C(F)(F)F)cn2)CC1` [Example 36, (R)-(1-(6-Oxo-5-(trifluoromethyl)-1,6-dihydropyridin-3-yl)pyrrolidin-2-yl)methyl 4-(5-(trifluoromethyl)pyrimidin-2-yl)piperazine-1-carboxylate] had an IC50 of 0.38 nM. Compared with the last molecule, the IC50 is about 2.4-fold lower.

In turn, `O=C(CCCc1c[nH]c(=O)c(C(F)(F)F)c1)N1CCN(c2ncc(C(F)(F)F)cn2)CC1` [Example 37, 5-(4-Oxo-4-(4-(5-(trifluoromethyl)pyrimidin-2-yl)piperazin-1-yl)butyl)-3-(trifluoromethyl)pyridin-2(1H)-one] came in with an IC50 of 0.9 nM. Compared with the last molecule, the IC50 is about 2.4-fold higher.

Turning to `CC(CC(=O)N1CCN(c2ncc(C(F)(F)F)cn2)CC1)c1c[nH]c(=O)c(C(F)(F)F)c1` (stereo not shown) [Example 38, 5-(4-Oxo-4-(4-(5-(trifluoromethyl)pyrimidin-2-yl)piperazin-1-yl)butan-2-yl)-3-(trifluoromethyl)pyridin-2(1H)-one], the midpoint of inhibition, the IC50, lay at 1.1 nM.

`O=C(CCO[C@H]1CCC[C@@H]1c1c[nH]c(=O)c(C(F)(F)F)c1)N1CCN(c2ncc(C(F)(F)F)cn2)CC1` [Example 39, 5-((1R,2S)-2-(3-Oxo-3-(4-(5-(trifluoromethyl)pyrimidin-2-yl)piperazin-1-yl)propoxy)cyclopentyl)-3-(trifluoromethyl)pyridin-2(1H)-one] showed a concentration for half-maximal inhibition (IC50) of 1.5 nM.
